The source of these data is patent US10604739B2, “Cardiomyocyte production” (Cellular Dynamics International, Inc., priority 2009, dated 2020).

What all share (assay type): cell-based, human
One series has as its system iPS6.1 and H9-TGZ cells. The series is described as follows: Meta-analysis of paired conditions with and without 50 ng/mL HGF. How it is done: A meta-analysis across these experiments was performed to assess whether the inventors could detect any measurable benefit of including HGF in the induction medium. This analysis reviewed all the available experiments for paired conditions with and without 50 ng/mL HGF. […] This left 14 paired conditions (11 performed in triplicate within an experiment). To aid in this analysis, a process raw material cost model was employed to estimate the cost per million cardiomyocytes under each condition. This model used the most up-to-date raw material cost and process information available at the time (˜Jun. 1, 2009).

Series [1] deals with iPS6.1 cells. As to the kind of experiment: iPS6.1 Growth Factor Titration #1. The following applies: HGF 0, 5, 20, 50, 150 ng/mL. The method, then: (§1) Aggregate formation and cardiac induction procedures of those iPS cells at different initial densities were performed essentially the same as described in Examples 4 except different concentrations of human HGF (hHGF) and FGF were applied to Aggregate Formation Medium, Aggregate Transition Medium and Cardiac Induction Medium.
Conditions without FGF had virtually no surviving aggregates and no measurable cardiomyocytes (FIGS. 29A-B). On the other hand, all conditions with FGF yielded cardiomyocytes independent of HGF concentration (FIGS. 29A-B).

The subject of series [2] is iPS6.1 cells. The series is described as follows: iPS6.1 Growth Factor Titration #2. The following applies: HGF 0, 20, 50 ng/mL, best performing FGF concentration conditions. How it is done: as §1
Based on the results of the first experiment (see FIGS. 29A-B), the second iPS6.1 growth factor titration focused on the lower dose range for both FGF and HGF (FIGS. 30A-B). […] However, it is important to note that in no case did the omission of HGF lead to the failure of a condition which was otherwise successful in the presence of HGF.

[3] abbreviates: First iPS 4-corners, head-to-head pairings with purity >1%.
The mark [4] stands for this setting: First iPS GF matrix, head-to-head pairings with purity >1%.
Where [5] appears, read: H9-TGZ Matrix #2, head-to-head pairings with purity >1%.
Setting [6] is: H9-TGZ Matrix #2 repeat, head-to-head pairings with purity >1%.
The mark [7] stands for this setting: HGF Conc 50 ng/mL, 14 paired conditions.
[8] abbreviates: Second iPS GF matrix, head-to-head pairings with purity >1%.
[9] abbreviates: Total of all experiments, head-to-head pairings with purity >1%.

In the case of “HGF: human recombinant HGF (hepatic growth factor), R&D systems”, in the series with iPS6.1 and H9-TGZ cells (setting [3]), the “Fraction with better CM/L @ 50 ng/mL HGF than 0” value is 0/1 and the “Fraction with better iPS:CM ratio @ 50 ng/mL HGF than 0” value is on record as 0/1. In addition, in the series with iPS6.1 and H9-TGZ cells (setting [4]), the “Fraction with better CM/L @ 50 ng/mL HGF than 0” value was 3/4 and the “Fraction with better iPS:CM ratio @ 50 ng/mL HGF than 0” value is listed as 3/4. In the series with iPS6.1 and H9-TGZ cells (setting [5]), the “Fraction with better CM/L @ 50 ng/mL HGF than 0” value is 2/4 and the “Fraction with better iPS:CM ratio @ 50 ng/mL HGF than 0” value is given as 2/4. For the same substance, in the series on iPS6.1 and H9-TGZ cells (setting [6]), the “Fraction with better CM/L @ 50 ng/mL HGF than 0” value is 0/1 and the “Fraction with better iPS:CM ratio @ 50 ng/mL HGF than 0” value is given as 0/1. In addition, in the series with iPS6.1 and H9-TGZ cells (setting [7]), the “CM/L, Average” value is listed as 49; the “CM/L, Best” value is 140; the “CM/L, Worst” value is reported as 1.5; the “iPS:CM, Average” value amounted to 100. In the series with iPS6.1 and H9-TGZ cells (setting [7]), the “iPS:CM, Best” value is listed as 7 and the “iPS:CM, Worst” value amounted to 712. In addition, in the series on iPS6.1 and H9-TGZ cells (setting [8]), the “Fraction with better CM/L @ 50 ng/mL HGF than 0” value is listed as 2/4 and the “Fraction with better iPS:CM ratio @ 50 ng/mL HGF than 0” value was 2/4. Besides, in the series with iPS6.1 and H9-TGZ cells (setting [9]), the “Fraction with better CM/L @ 50 ng/mL HGF than 0” value was 7/14 and the “Fraction with better iPS:CM ratio @ 50 ng/mL HGF than 0” value was 7/14. Moreover, the “Effect of HGF in cardiomyocyte production process (on average)” value in the series with iPS6.1 and H9-TGZ cells (with vs without 50 ng/mL HGF, 14 paired conditions) is “no measurable positive or negative effect”. In the series with iPS6.1 cells [1], the “Trend in cardiomyocyte yield or iPS:CM ratio across HGF concentrations” value is recorded as “no consistent trend in cardiomyocyte yield or iPS:CM ratio”. The “Trend of productivity with HGF concentration” value with iPS6.1 cells [2] is reported as “productivity increased with higher HGF concentrations”.
